Laboratory results: ChEMBL document CHEMBL5244279, “Perspectives on SARS-CoV-2 Main Protease Inhibitors” (J Med Chem, 2021)

Legend:
[1] = target: T1, Replicase polyprotein 1ab (Severe acute respiratory syndrome coronavirus 2, UniProt P0DTD1); experiment: Inhibition of SARS CoV-2 Main protease using MCA-AVLQSGFR-Lys(DNP)-Lys-NH2 peptide as substrate by fluorescence based analysis
[2] = Inhibition of SARS CoV N-terminal his-tagged Main protease using Dabcyl-KTSAVLQSGFRKME-Edan peptide as substrate by fluorescence based analysis; design: species or system Severe acute respiratory syndrome-related coronavirus
[3] = Binding affinity to SARS CoV N-terminal his-tagged Main protease using Dabcyl-KTSAVLQSGFRKME-Edan peptide as substrate by fluorescence based analysis; design: species or system Severe acute respiratory syndrome-related coronavirus
[4] = test system: SARS-CoV-2; format: functional, organism-based, Vero E6; settings: Severe acute respiratory syndrome coronavirus 2, Vero C1008
[5] = Cytotoxicity against human Huh-7 cells assessed as reduction of cell viability; format: toxicity, cell-based
[6] = Cytotoxicity against cat CRFK cells assessed as reduction of cell viability; format: toxicity, cell-based, Felis catus
[7] = Cytotoxicity against mouse L929 cells assessed as reduction of cell viability; format: toxicity, cell-based
[8] = test system: SARS-CoV-2; format: functional, organism-based, Vero E6; settings: Severe acute respiratory syndrome coronavirus 2, strain 107, Vero C1008
[9] = target: T1, Replicase polyprotein 1ab; experiment: Inhibition of SARS CoV-2 Main protease incubated for 10 min by FRET assay

## Cc1ccc(-n2sc3ccccc3c2=O)cc1
[1]
  IC50: 330 nM

## O=C(NCc1ccco1)c1ccc(-n2sc3ccccc3c2=O)cc1
[1]
  IC50: 380 nM

## CCCNC(=O)c1ccc(-n2sc3ccccc3c2=O)cc1
[1]
  IC50: 230 nM

## Cn1sc2ccccc2c1=O
[1]
  IC50: 780 nM

## O=C(Oc1ccc(S(=O)(=O)c2ccc(OC(=O)C(Cl)=C(Cl)Cl)cc2)cc1)C(Cl)=C(Cl)Cl
[2]
  IC50: 900 nM

## CCN(CC)c1ccc(C(=O)On2nnc3ccccc32)cc1
[3]
  Ki: 11.1 nM

## C=CCn1sc2ccccc2c1=O
[1]
  IC50: 630 nM

## O=c1[nH]sc2ccccc12
[1]
  IC50: 660 nM

## CC(C)Cn1sc2ccccc2c1=O
[1]
  IC50: 480 nM

## O=C(O)c1ccc(-n2[se]c3ccccc3c2=O)cc1
[1]
  IC50: 130 nM

## COC(=O)c1ccc(-n2sc3ccccc3c2=O)cc1
[1]
  IC50: 360 nM

## O=C(O)Cn1[se]c2ccccc2c1=O
[1]
  IC50: 410 nM

## Nc1ccccc1-n1sc2ccccc2c1=O
[1]
  IC50: 130 nM

## CC(C)[C@H](NC(=O)[C@H](C)NC(=O)OCc1ccccc1)C(=O)N[C@@H](Cc1ccccc1)[C@@H](O)[C@H](O)[C@H](Cc1ccccc1)NC(=O)[C@@H](NC(=O)[C@H](C)NC(=O)OCc1ccccc1)C(C)C
[2]
  Ki: 600 nM

## O=c1c2ccccc2sn1CCO
[1]
  IC50: 410 nM

## O=c1c2ccccc2sn1-c1ccccc1
[1]
  IC50: 490 nM

## O=C(O)CCn1[se]c2ccccc2c1=O
[1]
  IC50: 350 nM

## O=C(On1nnc2ccccc21)c1cc2ccccc2[nH]1
[3]
  Ki: 12.3 nM

## O=C[C@H](C[C@@H]1CCNC1=O)NC(=O)[C@H](Cc1ccccc1)NC(=O)/C=C/c1ccc(Cl)cc1F
[4]
  IC50: 200 nM

## O=c1c2ccccc2[se]n1CCN1CCOCC1
[1]
  IC50: 240 nM

## O=c1c2ccccc2[se]n1CCO
[1]
  IC50: 650 nM

## CC(C)C[C@H](NC(=O)OCc1ccccc1)C(=O)N[C@H](C=O)C[C@@H]1CCNC1=O
[5]
  CC50: […]
[6]
  CC50: […]
[4]
  IC50: 70 nM
[7]
  CC50: […]

## CC(C)C[C@H](NC(=O)OCC1CCC(F)(F)CC1)C(=O)N[C@H](C=O)C[C@@H]1CCNC1=O
[5]
  CC50: > 100000 nM
[6]
  CC50: > 100000 nM
[7]
  CC50: > 100000 nM

## CN(C)c1ccc(/C=C/C(=O)N[C@@H](Cc2ccccc2)C(=O)N[C@H](C=O)C[C@@H]2CCNC2=O)cc1
[4]
  IC50: 500 nM

## O=c1c2ccccc2sn1Cc1ccco1
[1]
  IC50: 110 nM
  Ki: 78 nM

## CC(C)C[C@H](NC(=O)/C=C/c1ccccc1)C(=O)N[C@H](C=O)C[C@@H]1CCNC1=O
[4]
  IC50: 830 nM

## Nc1ccccc1C(=O)On1nnc2ccccc21
[3]
  Ki: 19.5 nM

## O=C[C@H](C[C@@H]1CCNC1=O)NC(=O)[C@@H]1[C@H]2CCC[C@H]2CN1C(=O)CCc1cc(F)cc(F)c1
[8]
  EC50: 5630 nM

## O=C[C@H](C[C@@H]1CCNC1=O)NC(=O)[C@@H]1[C@H]2CCC[C@H]2CN1C(=O)COc1ccc(Cl)c(Cl)c1
[9]
  IC50: 30 nM
[8]
  EC50: 830 nM

## CC(C)C[C@H](NC(=O)OC1CCCCC1)C(=O)N[C@H](C=O)C[C@@H]1CCNC1=O
[5]
  CC50: > 100000 nM
[6]
  CC50: > 100000 nM
[4]
  IC50: 3900 nM
[7]
  CC50: > 100000 nM

## COc1ccc(OCC(=O)N2C[C@H]3[C@@H]([C@H]2C(=O)N[C@H](C=O)C[C@@H]2CCNC2=O)C3(C)C)cc1OC
[9]
  IC50: 14.5 nM
[8]
  EC50: 1730 nM

## CC1(C)[C@@H]2[C@@H](C(=O)N[C@H](C=O)C[C@@H]3CCNC3=O)N(C(=O)COc3ccc(F)c(F)c3)C[C@@H]21
[9]
  IC50: 13.2 nM
[8]
  EC50: 5570 nM

## CNc1ccc(C(=O)On2nnc3ccccc32)cc1
[3]
  Ki: 12.1 nM

## CC(C)(C)OC(=O)NCn1[se]c2ccccc2c1=O
[1]
  IC50: 330 nM

## O=C(On1nnc2ccccc21)c1ccc2[nH]cnc2c1
[3]
  Ki: 22.9 nM

## CC1(C)[C@@H]2[C@@H](C(=O)N[C@H](C=O)C[C@@H]3CCNC3=O)N(C(=O)COc3cc(F)cc(F)c3)C[C@@H]21
[9]
  IC50: 18.5 nM
[8]
  EC50: 1640 nM

## O=C[C@H](C[C@@H]1CCNC1=O)NC(=O)[C@@H]1[C@H]2CCC[C@H]2CN1C(=O)c1cccnc1
[9]
  IC50: 748 nM
